30 molecules from patent US10988477B2 (Merck Patent GmbH, priority 2018, dated 2021) can be followed below.

Each structure is given as a SMILES string. Counter-ions that a name gives are not always drawn.

One test addresses GCN2 kinase (Homo sapiens, UniProt Q9P2K8). As to the kind of experiment: GCN2 enzyme inhibition assay (Transcreener ADP2 fluorescence polarization). The note with it: compounds of Formula II; 280 μM ATP, 4 nM GCN2 kinase. It counts as biochemical. In a few lines: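 Human GCN2 (4 nM) preincubated 10 min with compound (0–8 μM) and 200 μM (RS)7 peptide in Tris-HCl pH 7.5, NaCl, MgCl2, DTT. Reaction started with 280 μM ATP, run 1 h at 25 °C. ADP detected by Transcreener fluorescence polarization. IC50 and Ki(app) fitted by tight-binding algorithm.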
On the technique in general: Fluorescence polarisation rises when a labelled molecule tumbles more slowly, as on binding a larger partner.

The target in test [1] is intracellular GCN2 (phosphorylation of the GCN2 substrate eIF2α) (Homo sapiens, UniProt Q9P2K8). As to the kind of experiment: GCN2 cellular inhibition assay (AlphaScreen SureFire P-eIF2α Ser51, borrelidin-treated U2OS cells). Format: cell-based. The note with it: compounds of Formula II; biomarker assay, phosphorylated eIF2α Ser51 in borrelidin-treated U2OS cells. The gist of the method:
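Compound effect on GCN2 is gauged by eIF2α Ser51 phosphorylation in borrelidin-challenged U2OS cells (10 μM, 1 h). Top compound level is 40 μM final.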
For orientation: Bead proximity is the source of the signal in Alpha formats.

Chain of GCN2 kinase (Q9P2K8 whole entry): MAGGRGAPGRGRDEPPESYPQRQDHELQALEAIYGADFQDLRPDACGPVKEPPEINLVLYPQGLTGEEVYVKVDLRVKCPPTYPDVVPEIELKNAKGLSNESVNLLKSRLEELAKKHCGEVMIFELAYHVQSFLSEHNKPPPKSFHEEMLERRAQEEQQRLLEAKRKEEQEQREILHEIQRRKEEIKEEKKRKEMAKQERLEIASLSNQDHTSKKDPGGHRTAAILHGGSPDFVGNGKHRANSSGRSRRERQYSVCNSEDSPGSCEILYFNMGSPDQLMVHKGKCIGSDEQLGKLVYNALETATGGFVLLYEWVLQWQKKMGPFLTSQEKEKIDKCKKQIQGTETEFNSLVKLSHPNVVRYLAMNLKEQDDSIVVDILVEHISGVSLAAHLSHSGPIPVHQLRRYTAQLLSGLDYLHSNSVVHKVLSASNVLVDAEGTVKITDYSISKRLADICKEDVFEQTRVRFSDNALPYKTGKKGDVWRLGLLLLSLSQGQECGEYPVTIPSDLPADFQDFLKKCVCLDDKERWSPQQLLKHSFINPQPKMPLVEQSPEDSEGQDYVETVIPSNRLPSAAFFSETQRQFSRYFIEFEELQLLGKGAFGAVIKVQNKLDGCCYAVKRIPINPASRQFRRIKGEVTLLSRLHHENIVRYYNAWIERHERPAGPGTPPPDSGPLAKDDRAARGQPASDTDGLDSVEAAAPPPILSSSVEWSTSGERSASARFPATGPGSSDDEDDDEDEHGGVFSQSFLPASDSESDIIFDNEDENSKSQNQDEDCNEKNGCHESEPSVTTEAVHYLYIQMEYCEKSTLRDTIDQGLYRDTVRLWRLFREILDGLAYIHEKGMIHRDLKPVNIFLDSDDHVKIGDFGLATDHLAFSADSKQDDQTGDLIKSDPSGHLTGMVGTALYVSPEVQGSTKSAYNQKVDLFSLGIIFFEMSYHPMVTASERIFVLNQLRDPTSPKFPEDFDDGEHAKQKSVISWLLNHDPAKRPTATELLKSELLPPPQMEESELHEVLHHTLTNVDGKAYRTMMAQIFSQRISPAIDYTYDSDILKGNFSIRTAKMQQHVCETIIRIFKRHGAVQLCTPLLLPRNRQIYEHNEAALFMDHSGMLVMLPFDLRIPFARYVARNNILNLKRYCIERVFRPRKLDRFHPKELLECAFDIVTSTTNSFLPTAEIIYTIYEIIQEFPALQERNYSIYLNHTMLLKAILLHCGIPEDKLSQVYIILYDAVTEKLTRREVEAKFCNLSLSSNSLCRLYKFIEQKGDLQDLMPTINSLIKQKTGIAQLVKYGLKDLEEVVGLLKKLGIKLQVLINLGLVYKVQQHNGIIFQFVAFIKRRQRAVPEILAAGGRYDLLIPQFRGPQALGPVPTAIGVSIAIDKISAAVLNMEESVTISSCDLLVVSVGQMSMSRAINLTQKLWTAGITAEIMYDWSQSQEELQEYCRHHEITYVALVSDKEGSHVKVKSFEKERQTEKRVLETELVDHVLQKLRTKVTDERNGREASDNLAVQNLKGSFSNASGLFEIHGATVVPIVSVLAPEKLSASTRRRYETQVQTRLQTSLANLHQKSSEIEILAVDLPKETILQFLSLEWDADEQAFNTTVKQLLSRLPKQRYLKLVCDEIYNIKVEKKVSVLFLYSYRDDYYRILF
Chain of intracellular GCN2 (phosphorylation of the GCN2 substrate eIF2α) (Q9P2K8 whole entry): as above

Take `CNc1ccc2ncc(-c3ccnc(N4CCCC(CNS(C)(=O)=O)C4)c3)n2n1` (stereo not drawn) [II-179, N-((1-(4-(6-(Methylamino)imidazo[1,2-b]pyridazin-3-yl)pyridin-2-yl)piperidin-3-yl)methyl)methanesulfonamide]: on GCN2 kinase, the Ki was 0.01 to 1 µM. In test [1], this molecule displayed an IC50 of 0.5 to 5 µM.
At GCN2 kinase, `FC(F)c1ccc2ncc(-c3cc(C4CCCN(C5COC5)C4)ncn3)n2n1` (stereo not drawn) [II-180, 6-(Difluoromethyl)-3-(6-(1-(oxetan-3-yl)piperidin-3-yl)pyrimidin-4-yl)imidazo[1,2-b]pyridazine] yielded a Ki of 0.01 to 1 µM. Moreover, the IC50 in test [1] is above 5 µM.
Regarding `CS(=O)(=O)N1CC2CCN(c3cc(-c4cnc5ccc(C(F)F)nn45)ncn3)CC21` (stereo not drawn) [II-181, 6-(Difluoromethyl)-3-(6-(8-(methylsulfonyl)-3,8-diazabicyclo[4.2.0]octan-3-yl)pyrimidin-4-yl)imidazo[1,2-b]pyridazine], the Ki on GCN2 kinase is above 1 µM. This molecule also registered an IC50 in test [1] above 5 µM.
For `CC(=O)N1CCN(c2cc(-c3cnc4ccc(OC(F)F)nn34)ccn2)CC1` [II-182, 1-(4-(4-(6-(Difluoromethoxy)imidazo[1,2-b]pyridazin-3-yl)pyridin-2-yl)piperazin-1-yl)ethanone] the same measures were 0.01 to 1 µM and above 5 µM.
Regarding `Cc1ccc2ncc(-c3ccnc(N4CCCC(CNS(C)(=O)=O)C4)c3)n2n1` (stereo not drawn) [II-183, N-((1-(4-(6-Methylimidazo[1,2-b]pyridazin-3-yl)pyridin-2-yl)piperidin-3-yl)methyl)methanesulfonamide], the Ki at GCN2 kinase was in the range of 0.01 to 1 µM. The IC50 in test [1] lay within 0.5 to 5 µM.
With `CS(=O)(=O)NCC1CN(c2cc(-c3cnc4ccc(Cl)nn34)ccn2)CCO1` (stereo not drawn) [II-184, N-((4-(4-(6-Chloroimidazo[1,2-b]pyridazin-3-yl)pyridin-2-yl)morpholin-2-yl)methyl)methanesulfonamide], the inhibition constant (Ki) on GCN2 kinase lay in the range of 0.01 to 1 µM. In test [1], the IC50 lay within 0.5 to 5 µM.
On GCN2 kinase, `CC(=O)N1CCN(c2cc(-c3cnc4ccc(CO)nn34)ccn2)CC1` [II-185, 1-(4-(4-(6-(Hydroxymethyl)imidazo[1,2-b]pyridazin-3-yl)pyridin-2-yl)piperazin-1-yl)ethanone] came in with a Ki of 0.01 to 1 µM. Moreover, the IC50 in test [1] was above 5 µM.
Consider `CC(=O)N1CCN(c2cc(-c3cnc4ccc(C(F)F)nn34)ncn2)CC1` [II-186, 1-(4-(6-(6-(Difluoromethyl)imidazo[1,2-b]pyridazin-3-yl)pyrimidin-4-yl)piperazin-1-yl)ethan-1-one], for which the Ki at GCN2 kinase lay within 0.01 to 1 µM. The same molecule yielded an IC50 in test [1] of 0.5 to 5 µM.
The matching figures for `O=C1CCN(c2cc(-c3cnc4ccc(Cl)nn34)ccn2)CCN1` [II-187, 1-(4-(6-Chloroimidazo[1,2-b]pyridazin-3-yl)pyridin-2-yl)-1,4-diazepan-5-one]: 0.01 to 1 µM and above 5 µM.
As for `Clc1ccc2ncc(-c3ccnc(N4CCC5CNCC5C4)c3)n2n1` (stereo not drawn) [II-188], at GCN2 kinase, the Ki lay in the range of 0.01 to 1 µM. The same molecule registered an IC50 in test [1] of 0.5 to 5 µM.
On GCN2 kinase, `NC(=O)[C@H]1CCCN(c2cc(-c3cnc4ccc(Cl)nn34)ccn2)C1` [II-189, (S)-1-(4-(6-Chloroimidazo[1,2-b]pyridazin-3-yl)pyridin-2-yl)piperidine-3-carboxamide] returned a Ki of 0.01 to 1 µM. The molecule also gave an IC50 in test [1] of 0.5 to 5 µM.
Regarding `O=C(NCCO)C1CCCN(c2cc(-c3cnc4ccc(C(F)F)nn34)ncn2)C1` (stereo not drawn) [II-191, 1-(6-(6-(Difluoromethyl)imidazo[1,2-b]pyridazin-3-yl)pyrimidin-4-yl)-N-(2-hydroxyethyl)piperidine-3-carboxamide], the Ki at GCN2 kinase was 0.01 to 1 µM. Further, the IC50 in test [1] is above 5 µM.
With `NS(=O)(=O)C1CCN(c2cc(-c3cnc4ccc(C(F)F)nn34)ncn2)C1` (stereo not drawn) [II-192, 1-(6-(6-(Difluoromethyl)imidazo[1,2-b]pyridazin-3-yl)pyrimidin-4-yl)pyrrolidine-3-sulfonamide], the Ki at GCN2 kinase was in the range of 0.01 to 1 µM. The molecule also registered a half-maximal inhibitory concentration (IC50) in test [1] above 5 µM.
The matching figures for `CC(=O)N1CCN(c2cc(-c3cnc4ccc(C)nn34)ccn2)CC1` [II-193, 1-(4-(4-(6-Methylimidazo[1,2-b]pyridazin-3-yl)pyridin-2-yl)piperazin-1-yl)ethanone]: 0.01 to 1 µM and above 5 µM.
For `Clc1ccc2ncc(-c3ccnc(N4CCOCC4)c3)n2n1` [II-194, 4-(4-(6-Chloroimidazo[1,2-b]pyridazin-3-yl)pyridin-2-yl)morpholine] the same measures were 0.01 to 1 µM and above 5 µM.
For `CN1CCN(c2cc(-c3cnc4ccc(Cl)nn34)ccn2)CC1` [II-195, 6-Chloro-3-(2-(4-methylpiperazin-1-yl)pyridin-4-yl)imidazo[1,2-b]pyridazine], at GCN2 kinase, the Ki lay in the range of 0.01 to 1 µM. The IC50 in test [1] was above 5 µM.
Molecule `CCc1ccc2ncc(-c3cc(N4CCO[C@H](CNS(C)(=O)=O)C4)ncn3)n2n1` [II-196, (S)—N-((4-(6-(6-Ethylimidazo[1,2-b]pyridazin-3-yl)pyrimidin-4-yl)morpholin-2-yl)methyl)methanesulfonamide] returned an inhibition constant (Ki) at GCN2 kinase of 0.01 to 1 µM. In test [1], this molecule yielded an IC50 above 5 µM.
In turn, `C[C@@H]1CO[C@H](CNS(C)(=O)=O)CN1c1cc(-c2cnc3ccc(C(F)F)nn23)ncn1` [II-197, N-(((2S,5R)-4-(6-(6-(Difluoromethyl)imidazo[1,2-b]pyridazin-3-yl)pyrimidin-4-yl)-5-methylmorpholin-2-yl)methyl)methanesulfonamide] came in with a Ki on GCN2 kinase below 0.01 µM. In addition, the IC50 in test [1] was below 0.5 µM.
As to `COC1CC(CNS(C)(=O)=O)CN(c2cc(-c3cnc4ccc(C(F)F)nn34)ncn2)C1` (stereo not drawn) [II-198, N-((1-(6-(6-(Difluoromethyl)imidazo[1,2-b]pyridazin-3-yl)pyrimidin-4-yl)-5-methoxypiperidin-3-yl)methyl)methanesulfonamide], the Ki on GCN2 kinase fell in the range of 0.01 to 1 µM. Further, the IC50 in test [1] is above 5 µM.
For `CS(=O)(=O)NC1CCN(c2cc(-c3cnc4ccc(C(F)F)nn34)ncn2)C1` (stereo not drawn) [II-199, N-(1-(6-(6-(Difluoromethyl)imidazo[1,2-b]pyridazin-3-yl)pyrimidin-4-yl)pyrrolidin-3-yl)methanesulfonamide] the same measures were 0.01 to 1 µM and above 5 µM.
Molecule `O=C1NCC2CCN(c3cc(-c4cnc5ccc(C(F)F)nn45)ncn3)CC12` (stereo not drawn) [II-200, 5-(6-(6-(Difluoromethyl)imidazo[1,2-b]pyridazin-3-yl)pyrimidin-4-yl)octahydro-3H-pyrrolo[3,4-c]pyridin-3-one] registered a Ki at GCN2 kinase of 0.01 to 1 µM. For the same molecule, the IC50 in test [1] is above 5 µM.
Molecule `C[C@@H]1CN(c2cc(-c3cnc4ccc(C(F)F)nn34)ncn2)CC(C(N)=O)O1` (stereo partly drawn) [II-201, (6R)-4-(6-(6-(Difluoromethyl)imidazo[1,2-b]pyridazin-3-yl)pyrimidin-4-yl)-6-methylmorpholine-2-carboxamide] gave a Ki at GCN2 kinase of 0.01 to 1 µM. For the same molecule, the IC50 in test [1] is above 5 µM.
The matching figures for `NS(=O)(=O)NCC1CCCN(c2cc(-c3cnc4ccc(C(F)F)nn34)ncn2)C1` (stereo not drawn) [II-202, 1-((1-(6-(6-(Difluoromethyl)imidazo[1,2-b]pyridazin-3-yl)pyrimidin-4-yl)piperidin-3-yl)methyl)sulfuric diamide]: below 0.01 µM and below 0.5 µM.
The matching figures for `FC(F)c1ccc2ncc(-c3cc(N4CCC(c5c[nH]cn5)C4)ncn3)n2n1` (stereo not drawn) [II-203, 3-(6-(3-(1H-imidazol-4-yl)pyrrolidin-1-yl)pyrimidin-4-yl)-6-(difluoromethyl)imidazo[1,2-b]pyridazine]: 0.01 to 1 µM and above 5 µM.
For `COc1ccc2ncc(-c3ccnc(N4CCN(C(C)=O)CC4)c3)n2n1` [II-204, 1-(4-(4-(6-Methoxyimidazo[1,2-b]pyridazin-3-yl)pyridin-2-yl)piperazin-1-yl)ethan-1-one trifluoroacetate] the same measures were 0.01 to 1 µM and above 5 µM.
As for `NC(=O)c1cc(C2CCCN(c3cc(-c4cnc5ccc(C(F)F)nn45)ncn3)C2)n[nH]1` (stereo not drawn) [II-205, 3-(1-(6-(6-(Difluoromethyl)imidazo[12-b]pyridazin-3-yl)pyrimidin-4-yl)piperidin-3-yl)-1H-pyrazole-5-carboxamide], at GCN2 kinase, the Ki was in the range of 0.01 to 1 µM. The molecule further returned an IC50 in test [1] of 0.5 to 5 µM.
As for `CS(=O)(=O)N1CCN(C(=O)C2CCCN(c3cc(-c4cnc5ccc(C(F)F)nn45)ncn3)C2)CC1` (stereo not drawn) [II-206, (1-(6-(6-(Difluoromethyl)imidazo[1,2-b]pyridazin-3-yl)pyrimidin-4-yl)piperidin-3-yl)(4-(methylsulfonyl)piperazin-1-yl)methanone], the Ki at GCN2 kinase was 0.01 to 1 µM. Further, the IC50 in test [1] was above 5 µM.
For the molecule `O=C1CCCC2CN(c3cc(-c4cnc5ccc(Cl)nn45)ccn3)CCN12` (stereo not drawn) [II-207, 2-(4-(6-Chloroimidazo[1,2-b]pyridazin-3-yl)pyridin-2-yl)hexahydro-1H-pyrido[1,2-a]pyrazin-6(2H)-one], the Ki at GCN2 kinase was in the range of 0.01 to 1 µM. In test [1], this molecule gave an IC50 above 5 µM.
With `CC(=O)N1CCN(c2cc(-c3cnc4ccc(Cl)nn34)ccn2)CC1` [II-208, 1-(4-(4-(6-Chloroimidazo[1,2-b]pyridazin-3-yl)pyridin-2-yl)piperazin-1-yl)ethanone], the Ki at GCN2 kinase was 0.01 to 1 µM. Further, in test [1], the IC50 is above 5 µM.
For `COCC(=O)NCCC1CCCN(c2cc(-c3cnc4ccc(C(F)F)nn34)ncn2)C1` (stereo not drawn) [II-209, N-(2-(1-(6-(6-(Difluoromethyl)imidazo[1,2-b]pyridazin-3-yl)pyrimidin-4-yl)piperidin-3-yl)ethyl)-2-methoxyacetamide], the Ki at GCN2 kinase is 0.01 to 1 µM. This molecule had an IC50 in test [1] above 5 µM.

The Ki is the equilibrium dissociation constant of an inhibitor or competing ligand from its target. A higher Ki goes with a looser hold on the target. Broadly, the IC50 is the point on the concentration scale where inhibition reaches its midpoint.
